Test results reported in patent publication US20240400986A1, “MEMBRANE BOUND COMPOSITIONS AND METHODS RELATING TO SAME” (FLAGSHIP PIONEERING INNOVATIONS VII, LLC, priority 2021, published 2024).
Read-outs that look alike come from different tables or passages of the source.

What was measured:
[1] = test system: neuronal cell line derived from human neuroblastoma
[2] = test system: neuronal cell line derived from human neuroblastoma; assay: Small molecule compound screen of gigasome production in neuronal monocultures; conditions: for fold induction at 0.01 µM / fold induction at 0.1 µM / fold induction at 1 µM / fold induction at 10 µM: Homo sapiens, read-out: Fold Change of Gigasomes Produced vs. DMSO; for fold induction at 0.01 µM / fold induction at 0.1 µM / fold induction at 1 µM / fold induction at 10 µM / downregulation of gigasome production: 24 h; for Number of Gigasomes Produced / Fold Change of Gigasomes Produced vs. DMSO / downregulation of gigasome production: neuronal cells; for Number of Gigasomes Produced / Fold Change of Gigasomes Produced vs. DMSO: 24 hours; for downregulation of gigasome production: doses 10-10,000 nM
Text: To quantify and characterize gigasome production using microscopy, while tracking cell viability/phenotype, a multi-readout system was developed that allowed simultaneous analysis of gigasomes harvested from cell culture media supernatants and respective gigasome producing cell viability. […] For the screening, a total of 99 compounds (TargetMol) were divided in 5 groups. Each group included an untreated condition, a vehicular DMSO control, and a known high-gigasome producing condition to comparatively study gigasome production rates. As a cell death control group, 500 nM Staurosporine was added to induce apoptosis. Cultures were incubated for 24 hours under gigasome inducing conditions at concentrations ranging between 10 nM and 10,000 nM. Before the end of the treatment, live neuronal cultures were imaged. The Zeiss ZEN Blue software was used to distribute imaging fields of view (positions) to create an unbiased imaging sample of a well. 5 images were taken using a Zeiss LSM 900 confocal microscope. […] The BioApps ZEN software package was used to perform cell nucleus segmentation and counting. After 24 hours, gigasomes were harvested from the cell culture media by gently removing from the top of each 96-well ⅔ of the total volume without disturbing the cell layer (containing the settled gigasomes) and by adding to each well the same amount of PBS. The wells were washed twice gently, and the gigasome-containing media/PBS wash was transferred into the well of a 384-well glass bottom plate. Cells remaining in the 96-well plates were assessed for viability using CellTiter-Glo (Promega).
For gigasome analysis in 384-well plates, the Zeiss ZEN Blue software was used to distribute positions to create an unbiased imaging sample of a well. 6 images per well were taken using a Zeiss LSM 900 confocal microscope.
A watershed binary segmentation step was performed to separate grouped objects. For each particle in the mask, characteristic parameters of the particle were calculated and saved.
Particles of interest were identified by thresholding by area and circularity. […] Circularity, defined by the formula 4pi(area/perimeter^2, was set to be between 0.8 and 1, where a value of 1.0 is a perfect circle, and a value of 0 is a line. Gigasomes were identified from the particles of interest by thresholding by mean nuclear signal. The nuclear signal threshold was set using a value equal to one fourth of a threshold value calculated by the Li auto-threshold algorithm applied to the distribution of all particles of interest. Particles of interest with nuclear signal below this value were considered “negative” for nuclear material and were identified as gigasomes. A sampling factor was calculated to extrapolate the total quantity of a type of object (particles, particles of interest, gigasomes) in the well. The sampling factor was the percentage of the well's area that was imaged. […] The normalized quantity or distribution of objects was described as a quantity or distribution of objects per 1000 cells.

[3] = test system: cardiomyocytic cell line derived from human ventricular heart tissue; assay: Small molecule compound screen of gigasome production in cardiomyocytic monocultures; conditions: cardiomyocytes;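 further: gigasomes shed into the culture medium were imaged by confocal microscopy and counted as round particles lacking nuclear signal, extrapolated to the whole well, fold change is relative to DMSO vehicle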
Experimental: For the screening, a total of 100 randomly organized compounds (TargetMol) were divided in 5 groups. Each group included an untreated condition, a vehicular DMSO control, and a known high-gigasome producing condition to comparatively study gigasome production rates. As a cell death control group, 500 nM Staurosporine was added to induce apoptosis. Cultures were incubated for 24 hours under gigasome inducing conditions at concentrations ranging between 10 nM and 10,000 nM. […] The Zeiss ZEN Blue software was used to distribute imaging fields of view (positions) to create an unbiased imaging sample of a well. 5 images were taken using a Zeiss LSM 900 confocal microscope. […] The BioApps ZEN software package was used to perform cell nucleus segmentation and counting. After 24 hours, gigasomes were harvested from the cell culture media by gently removing from the top of each 96-well ⅔ of the total volume without disturbing the cell layer (containing the settled gigasomes) and by adding to each well the same amount of PBS containing 0.5 mM EDTA. The wells were washed twice gently, and the gigasome-containing media/0.5 mM EDTA PBS wash was transferred into the well of a 384-well glass bottom plate. Cells remaining in the 96-well plates were assessed for viability using CellTiter-Glo (Promega).
For gigasome analysis in 384-well plates, the Zeiss ZEN Blue software was used to distribute positions to create an unbiased imaging sample of a well. 6 images per well were taken using a Zeiss LSM 900 confocal microscope. […] A watershed binary segmentation step was performed to separate grouped objects. For each particle in the mask, characteristic parameters of the particle were calculated and saved. […] Particles of interest were identified by thresholding by area and circularity. […] Circularity, defined by the formula 4pi(area/perimeter^2, was set to be between 0.8, where a value of 1.0 is a perfect circle, and a value of 0 is a line. Gigasomes were identified from the particles of interest by thresholding by mean nuclear signal. The nuclear signal threshold was set using a value equal to one quarter of a threshold value calculated by the Li auto-threshold algorithm applied to the distribution of all particles of interest. Particles of interest with nuclear signal below this value were considered “negative” for nuclear material and were identified as gigasomes. A sampling factor was calculated to extrapolate the total quantity of a type of object (particles, particles of interest, gigasomes) in the well. The sampling factor was the percentage of the well's area that was imaged. […] In some experiments, the number of cells in the cell cultures were estimated with a cell counter. […] The normalized quantity or distribution of objects was described as a quantity or distribution of objects per 1000 cells.

[4] = Table 23 (down-regulators), dose 10 nM
[5] = Table 23 (down-regulators), dose 100 nM
[6] = Table 23 (down-regulators), dose 1000 nM
[7] = Table 23 (down-regulators), dose 10000 nM
[8] = neuronal cells, dose 10 nM, 24 hours
[9] = neuronal cells, dose 100 nM, 24 hours
[10] = neuronal cells, dose 1000 nM, 24 hours
[11] = Table 22, dose 100 nM, 24 hours
[12] = neuronal cells, dose 10000 nM, 24 hours

## Cc1ncc(-c2ccnc(Nc3ccc(S(C)(=O)=O)cc3)n2)n1C(C)C [AZD-5438]
[1]; human, 24 h, 10 nM
  Viability: 100%
[1]; human, 24 h, 100 nM
  Viability: 100%
[1]; human, 24 h, 1000 nM
  Viability: 100%
[2]
  fold induction at 0.01 µM: 1.5 to 1.75
  fold induction at 0.1 µM: 1.25 to 1.5
  fold induction at 1 µM: 1 to 1.25
[2]; dose 10 nM
  Number of Gigasomes Produced: 45-55
[2]; dose 100 nM
  Number of Gigasomes Produced: 35-45
[2]; dose 1000 nM
  Number of Gigasomes Produced: 35-45

## COC(=O)C1=C(C)NC(C)=C([N+](=O)[O-])C1c1ccccc1C(F)(F)F (stereo not shown) [Bay K 8644]
[3]; [4]
  Fold Change of Gigasomes Produced vs. DMSO: 0.75-1.0
  Number of Gigasomes Produced: >150
[3]; [5]
  Fold Change of Gigasomes Produced vs. DMSO: 0.5-0.75
  Number of Gigasomes Produced: 120-135
[3]; [6]
  Fold Change of Gigasomes Produced vs. DMSO: 0.75-1.0
  Number of Gigasomes Produced: 105-120
[3]; [7]
  Fold Change of Gigasomes Produced vs. DMSO: 0.25-0.5
  Number of Gigasomes Produced: 75-90
[2]; dose 10 nM
  Fold Change of Gigasomes Produced vs. DMSO: 1.25-1.5
  Number of Gigasomes Produced: 35-45
[2]; dose 100 nM
  Fold Change of Gigasomes Produced vs. DMSO: 1.25-1.5
  Number of Gigasomes Produced: 35-45
[2]; dose 1000 nM
  Fold Change of Gigasomes Produced vs. DMSO: 1.25-1.5
  Number of Gigasomes Produced: 35-45

## C=C(C)[C@@H]1CC[C@]2(C(=O)O)CC[C@]3(C)[C@H](CC[C@@H]4[C@@]5(C)CC[C@H](O)C(C)(C)[C@@H]5CC[C@]43C)[C@@H]12 [Betulinic acid]
[1]; human, 24 h, 10 nM
  Viability: 100%
[1]; human, 24 h, 100 nM
  Viability: 100%
[1]; human, 24 h, 10000 nM
  Viability: 100%
[2]
  fold induction at 0.01 µM: 0.5 to 0.75
  fold induction at 0.1 µM: 1.25 to 1.5
  fold induction at 10 µM: 1.5 to 1.75
[2]; dose 10 nM
  Number of Gigasomes Produced: <35
[2]; dose 100 nM
  Number of Gigasomes Produced: 55-65
[2]; dose 10000 nM
  Number of Gigasomes Produced: 55-65

## O=C1CSC(c2ccccc2Cl)c2cc(Cl)ccc2N1 (stereo not shown) [CGP37157, reference compound]
[3]; [4]
  Fold Change of Gigasomes Produced vs. DMSO: 0.75-1.0
  Number of Gigasomes Produced: 120-135
[3]; [5]
  Fold Change of Gigasomes Produced vs. DMSO: 0.75-1.0
  Number of Gigasomes Produced: 105-120
[3]; [6]
  Fold Change of Gigasomes Produced vs. DMSO: 0.25-0.5
  Number of Gigasomes Produced: 50-75
[3]; [7]
  Fold Change of Gigasomes Produced vs. DMSO: 0.25-0.5
  Number of Gigasomes Produced: 50-75
[3]; doses 10-10,000 nM, 24 h
  downregulation of gigasome production: dose-dependent downregulation

## O=C(c1ccc2nccnc2c1)N1CCCCC1 [CX516]
[1]; [8]
  Viability: 100%
[1]; [9]
  Viability: 100%
[1]; [10]
  Viability: 100%
[2]
  fold induction at 0.01 µM: 0.75 to 1
  fold induction at 0.1 µM: 1.25 to 1.5
  fold induction at 1 µM: 1 to 1.25
[2]; dose 10 nM
  Number of Gigasomes Produced: <35
[2]; dose 100 nM
  Number of Gigasomes Produced: 45-55
[2]; dose 1000 nM
  Number of Gigasomes Produced: 35-45

## C[C@H](NC(=O)Cc1cc(F)cc(F)c1)C(=O)N[C@H](C(=O)OC(C)(C)C)c1ccccc1 [DAPT]
[3]; Table 22, dose 10 nM, 24 hours
  Fold Change of Gigasomes Produced vs. DMSO: 1.0-1.25
  Number of Gigasomes Produced: 200-225
[3]; [11]
  Fold Change of Gigasomes Produced vs. DMSO: 1.25-1.5
  Number of Gigasomes Produced: 250-275

## CC1=NS(=O)(=O)c2cc(Cl)ccc2N1 [Diazoxide]
[1]; human, 24 h, 100 nM
  Viability: 100%
[1]; human, 24 h, 1000 nM
  Viability: 100%
[1]; human, 24 h, 10000 nM
  Viability: 100%
[2]
  fold induction at 0.1 µM: 1.5 to 1.75
  fold induction at 1 µM: 1.25 to 1.5
  fold induction at 10 µM: 1 to 1.25
[2]; dose 100 nM
  Number of Gigasomes Produced: 45-55
[2]; dose 1000 nM
  Number of Gigasomes Produced: 35-45
[2]; dose 10000 nM
  Number of Gigasomes Produced: 35-45

## COC(=O)c1ccccc1NC(=O)c1ccc(F)cc1 [EXO1, reference compound]
[1]; [8]
  Viability: 100%
[1]; [9]
  Viability: 100%
[1]; [10]
  Viability: 100%
[1]; [12]
  Viability: 100%
[2]; dose 10 nM
  Fold Change of Gigasomes Produced vs. DMSO: 0.75-1.0
  Number of Gigasomes Produced: 35-40
[2]; dose 100 nM
  Fold Change of Gigasomes Produced vs. DMSO: 0.5-0.75
  Number of Gigasomes Produced: 20-25
[2]; dose 1000 nM
  Fold Change of Gigasomes Produced vs. DMSO: 0.25-0.5
  Number of Gigasomes Produced: 10-15
[2]; dose 10000 nM
  Fold Change of Gigasomes Produced vs. DMSO: 0.25-0.5
  Number of Gigasomes Produced: 10-15
[2]
  downregulation of gigasome production: dose-dependent downregulation

## CCCn1cnc2c(NCc3ccc(C)s3)nc(N[C@H](CC)CO)nc21 [GV-58, reference compound]
[1]; [8]
  Viability: 100%
[1]; [9]
  Viability: 100%
[1]; [10]
  Viability: 100%
[1]; [12]
  Viability: >75%
[2]; dose 10 nM
  Fold Change of Gigasomes Produced vs. DMSO: 0.75-1.0
  Number of Gigasomes Produced: 25-30
[2]; dose 100 nM
  Fold Change of Gigasomes Produced vs. DMSO: 0.75-1.0
  Number of Gigasomes Produced: 20-25
[2]; dose 1000 nM
  Fold Change of Gigasomes Produced vs. DMSO: 0.75-1.0
  Number of Gigasomes Produced: 20-25
[2]; dose 10000 nM
  Fold Change of Gigasomes Produced vs. DMSO: 0.25-0.5
  Number of Gigasomes Produced: 10-15
[2]
  downregulation of gigasome production: dose-dependent downregulation

## O=C(/C=C/c1ccc(/C=C/C(=O)Nc2ccc(C3=NCCN3)cc2)cc1)Nc1ccc(C2=NCCN2)cc1 [GW4869, reference compound]
[2]; dose 10 nM
  Number of Gigasomes Produced: 30-35
[2]; dose 100 nM
  Fold Change of Gigasomes Produced vs. DMSO: 0.75-1.0
  Number of Gigasomes Produced: 35-40
[2]; dose 1000 nM
  Fold Change of Gigasomes Produced vs. DMSO: 0.25-0.5
  Number of Gigasomes Produced: 15-20
[2]; dose 10000 nM
  Fold Change of Gigasomes Produced vs. DMSO: 0.25-0.5
  Number of Gigasomes Produced: 5-10
[2]
  downregulation of gigasome production: dose-dependent downregulation

## CCN(CCO)CCCC(C)Nc1ccnc2cc(Cl)ccc12 (stereo not shown) [Hydroxychloroquine]
[1]; [8]
  Viability: 100%
[1]; [9]
  Viability: 100%
[1]; [10]
  Viability: >75%
[1]; [12]
  Viability: >75%
[2]
  fold induction at 0.01 µM: 1 to 1.25
  fold induction at 0.1 µM: 0.75 to 1
  fold induction at 1 µM: 0.75 to 1
  fold induction at 10 µM: 0.75 to 1
[2]; dose 10 nM
  Number of Gigasomes Produced: 30-35
[2]; dose 100 nM
  Number of Gigasomes Produced: 20-25
[2]; dose 1000 nM
  Number of Gigasomes Produced: 25-30
[2]; dose 10000 nM
  Number of Gigasomes Produced: 20-25
